Measured values: patent publication US4975455A, “New heteroarotinoid compounds” (Adir et Cie, priority 1988, dated 1990)
Read-outs that look alike come from different tables or passages of the source.

Assays:
[1] = Detection of an excess-vitamin A type toxicity in vivo
Text: (§1) This can be reproduced experimentally in animals.
(§2) The selected treatment protocol is a daily injection for five days, repeated a second time after an interval of two days.

[2] = system: L1210 line (mouse leukemic line); experiment: Inhibition of growth of L1210 line (tritiated thymidine incorporation, 48 hours); assay type: cell-based; conditions: L1210 cells, read-out: IC50 (50% growth inhibition)
Procedure: The growth of this mouse leukemic line is assessed by the capacity of the cells to incorporate tritiated thymidine. The degree of incorporation is measured 48 hours after the introduction of the test compounds into the culture medium.

humeri of rat fetuses = experiment: Toxicity on the humeri of rat fetuses explanted in vitro (proteoglycan release); assay type: cell-based; conditions: 7 days of culture in vitro, in words
Procedure: EXAMPLE 37: STUDY OF THE TOXICITY ON THE HUMERI OF RAT FETUSES OF GESTATIONAL AGE 21 DAYS
The toxicity of retinoids can be evaluated on humeri of rat fetuses of gestational age 21 days.
The toxicity of retinoids can be evaluated on humeri of rat fetuses explanted in vitro as described by KISTLER.
Retinoid activity results in a release of proteoglycans from the bony substance. This release is assessed after 7 days of culture in vitro by assaying the concentration of proteoglycans in the medium, by the method of WITHEMAN (1973).

[3] = in vivo
Text: as §1, §2

[4] = daily injection for five days, repeated after two days interval

IC50 [2] [µM] | Structure (SMILES) | further results
< 1 | CC(=Cc1ccccc1)C1=Cc2ccccc2OC1 [Example 1, 3-(1-PHENYLPROPEN-2-YL)-2H-CHROMENE] | –
20 | CC(=Cc1ccccc1)C1=Cc2cc(Cl)cc(C)c2OC1 [Example 3] | –
25 | COC(=O)c1ccc(/C=C(\C)C2=Cc3ccccc3OC2)cc1 [Example 6, methyl 4-[2-(2H-chromen-3-yl)propenyl]benzoate] | –
25 | COC(=O)c1ccc(/C=C(\C)C2=Cc3cc(Cl)cc(Cl)c3OC2)cc1 [Example 8] | toxicity on the humeri (humeri of rat fetuses): complete absence of toxicity
18 | CCOC(=O)c1ccc(/C=C(\C)C2=Cc3ccccc3OC2)cc1 [Example 10, ethyl 4-[2-(2H-chromen-3-yl)propenyl]benzoate] | –
3.8 | CCNC(=O)c1ccc(/C=C(\C)C2=Cc3ccccc3OC2)cc1 [Example 13, N-ethyl-4-[2-(2H-chromen-3-yl)propenyl]benzamide] | –
3.8 | CCS(=O)(=O)c1ccc(/C=C(\C)C2=Cc3ccccc3OC2)cc1 [Example 16, ethyl 4-[2-(2H-chromen-3-yl)propenyl]phenyl sulfone] | –
7.5 | CCS(=O)(=O)c1ccc(C=C(C)C2=Cc3cc(Cl)cc(C)c3OC2)cc1 [Example 17] | –
6 | CCS(=O)(=O)c1ccc(C=C(C)C2=Cc3cc(C)cc(C)c3OC2)cc1 [Example 18] | –
8 | CCS(=O)(=O)c1ccc(/C=C(\C)C2=Cc3cc(OC)ccc3OC2)cc1 [Example 24, ethyl 4-[2-(6-methoxy-2H-chromen-3-yl)propenyl]phenyl sulfone] | –
– | CC1=C(/C=C/C(C)=C/C=C/C(C)=C/C(=O)O)C(C)(C)CCC1 [retinoic acid] | alopecia [3]: appearance of alopecia; weight [3]: rapid weight loss

Structure (SMILES) | IC50 [2] [µM] | further results
CCOC(=O)/C=C(C)/C=C/C=C(C)/C=C/c1c(C)cc(OC)c(C)c1C [Etretinate, etretinate] | 80 | alopecia [1, 4]: appearance of alopecia; fracture / bone weakening (radiography) [1, 4]: bone weakening; weight [1, 4]: rapid weight loss; excess-vitamin A type toxicity ([1]; overall, in words): rapid weight loss, alopecia and bone weakening
